Key:
[1] = Rat hindpaw withdrawal latency (HWL) to mechanical stimulation (Randall Selitto Test); type: in vivo; conditions: Day 14, i.t. every 12 hrs, morphine 8 μg rotated with nociceptin 10 nmol every 2 days
[2] = Rat hindpaw withdrawal latency (HWL) to thermal stimulation (hot-plate test, 52° C.); type: in vivo; conditions: Day 6, i.t. every 12 hrs: morphine 8 μg, or rotated with nociceptin 10 nmol every 2 days
[3] = Development of tolerance to intrathecal analgesia in rat HWL study (thermal and mechanical); type: in vivo; conditions: drug alone i.t. every 12 hrs
[4] = after parenteral injection; cited from earlier work

Row | Structure (SMILES) | % Changes of HWL to Mechanical Stimulation 10 Minutes After Intrathecal Injection, Left [1] [%] | % Changes of HWL to Thermal Stimulation 10 Minutes After Intrathecal Injection, Left ([2]; left hindpaw) [%] | % Changes of HWL to Thermal Stimulation 10 Minutes After Intrathecal Injection, Right ([2]; right hindpaw) [%] | day by which total/complete tolerance exists [3] [days] | brain penetration [4]
1 | CN1CC[C@]23c4c5ccc(O)c4O[C@H]2[C@@H](O)C=C[C@H]3[C@H]1C5 [Morphine, morphine] | −0.84 ± 1.61 | −1.30 ± 2.36 | 0.51 ± 1.61 | ≤ 6 | 
2 | O=C1NCN(c2ccccc2)C12CCN([C@H]1CC[C@@H]3CCCc4cccc1c43)CC2 [RO 64-6198, (1S,3aS)8-(2,3,3a,4,5,6-hexahydro-1H-phenalen-1-yl)-1-phenyl-1,3,8-triaza-spiro[4,5]decan-4-one] |  |  |  |  | high degree of brain penetration

Reference: patent US20030032651A1 (priority 2001, published 2003)
